Assay results reported in article PMC10066365, “Nemacol is a small molecule inhibitor of C. elegans vesicular acetylcholine transporter with anthelmintic potential” (Nature Communications, 2023).
Values joined by “and” are separate entries in the source; they are usually repeats but may differ in a detail not shown here. Identical values can stand only once.

System: Dirofilaria immitis microfilariae
Test: Dirofilaria immitis microfilariae motility (optical flow, ImageXpress/wrmXpress) and CellTox Green viability, second lab
Experimental: We also conducted Dirofilaria immitis experiments in the lab of M. Zamanian (Univeristy of Wisconsin). For this experiment, shown in Supplementary Fig. 6, Microfilaremic blood was obtained from the NIH/NIAID Filariasis Research Reagent Resource Center (FR3)[70]. Blood was drawn and shipped approximately 24 h before use. Upon arrival, blood was warmed to 37 °C then combined with a 0.85% sodium chloride and 0.2% saponin solution in a 1:11 volumetric ratio and incubated in a 37 °C water bath for 15 min. The hemolyzed solution was passed through a 25 mm 5.0 μm pore size syringe filter. The used filter disks were transferred to petri dishes filled with RPMI 1640 culture media with 1% penicillin/streptomycin (0.1 mg/mL) and incubated at 37 °C for 2 h while microfilariae (mf) separated from the disks. Disks were discarded and mf titered to 5 mf/μL.
Aliquots of titered mf were incubated on a heating block at 60 °C for 1 h to produce heat killed positive controls. One μL of 100× drug was aliquoted to each well of a 96-well plate; 100 μL of live mf were added to treatment wells and 100 μL of heat killed mf were added to positive control wells (for a total of 500 mf/well). Plates were sealed with a breathable plate cover and maintained at 37 °C and 5% atmospheric CO2. […] Image analysis and the subsequent measurement of optical flow and fluorescence was performed using wrmXpress v1.3.02[71]. […]

O=[N+]([O-])c1ccc(N2CCN(CC3CCCCC3)CC2)cc1 [Nemacol-1]
impact on IVM's ability to paralyze Dirofilaria: no impact
optical_flow: 64671429 and 95056554 and 124845938 and 124294468
